Test results: patent US8389558B2, “Bendamustine amphiphilic anionic compositions” (Supratek Pharma Inc., priority 2009, dated 2013)
Counter-ions that a name gives are not always drawn.

Legend:
[1] = 23° C.; cited from earlier work
[2] = Bendamustine chemical stability in formulations with amphiphilic anionic agents and phosphate buffer (HPLC, first order kinetics); type: physicochemical; conditions: 0.6 mg/mL bendamustine, 1% (w/v) aqueous amphiphilic anionic agent, 6 mM phosphate buffer pH 7.2, 25° C.; read-out: decomposition half time (T½) of bendamustine
Procedure: Formulations were prepared by dissolving bendamustine hydrochloride in pre-equilibrated 1% (w/v) aqueous solution of amphiphilic anionic agent containing 6 mM phosphate buffer, pH 7.2. The final concentration of bendamustine was 0.6 mg/mL. The formulations were incubated at 25° C., and were periodically analyzed by HPLC as follows. 10 μL samples were separated using Waters SymmetryShield RP-18 3.5 μm column (4.6×50 mm) at the flow of 1.5 mL/min of acetonitrile-water gradient containing 0.1% TFA. Peak detection has been performed with means of UV absorption detection at 260 nm. The area of the peak of Bendamustine was used to evaluate the rate of drug decomposition in the first order kinetics model.

Structure (SMILES)	time for which stable in saline solution [1]	half-life at 0.6 mg/mL [2]
Cn1c(CCCC(=O)O)nc2cc(N(CCCl)CCCl)ccc21 [bendamustine hydrochloride]	9 h	–
Cn1c(CCCC(=O)O)nc2cc(N(CCCl)CCCl)ccc21 [Control (phosphate buffer), bendamustine hydrochloride]	–	44 min
